{
  "source": "ChEMBL document CHEMBL2046287",
  "about": "“Conformation study of 2-arylbenzimidazoles as inhibitors of Chlamydia pneumoniae growth” (2012)",
  "data": [
    {"system": "Chlamydia pneumoniae", "assay": "Growth inhibition of Chlamydia pneumoniae at 10 uM", "type": "functional", "conditions": "read-out: GI", "units": {"inhibition of growth at 10 µM": "%"}, "values": [
      {"smiles": "O=C(Nc1ccccc1)c1ccsc1", "inhibition of growth at 10 µM": 68},
      {"smiles": "COc1ccccc1C(=O)Nc1ccccc1", "inhibition of growth at 10 µM": 0},
      {"smiles": "O=C(Nc1ccccc1)c1ccccn1", "inhibition of growth at 10 µM": 36},
      {"smiles": "Cn1cccc1C(=O)Nc1ccccc1", "inhibition of growth at 10 µM": 80},
      {"smiles": "Cn1c(-c2ccccc2)nc2ccccc21", "inhibition of growth at 10 µM": 0},
      {"smiles": "O=C(Nc1ccccc1)c1ccco1", "inhibition of growth at 10 µM": 45},
      {"smiles": "c1ccc(-c2nc3ccccc3o2)cc1", "note": "[2-PHENYLBENZO[D]OXAZOLE]", "inhibition of growth at 10 µM": 61},
      {"smiles": "c1ccc(-c2nc3ccccc3[nH]2)cc1", "inhibition of growth at 10 µM": 89},
      {"smiles": "Cc1ccccc1-c1nc2ccccc2[nH]1", "inhibition of growth at 10 µM": 59},
      {"smiles": "O=C(Nc1ccccc1)c1ccccc1", "note": "[N-PHENYLBENZAMIDE]", "inhibition of growth at 10 µM": 99},
      {"smiles": "Cc1ccccc1C(=O)Nc1ccccc1", "inhibition of growth at 10 µM": 99},
      {"smiles": "O=C(Nc1ccccc1)c1cccs1", "inhibition of growth at 10 µM": 89},
      {"smiles": "O=C(Nc1ccccc1)c1ccccc1F", "inhibition of growth at 10 µM": 0},
      {"smiles": "O=C(Nc1ccccc1)c1ccoc1", "inhibition of growth at 10 µM": 78},
      {"smiles": "O=C(Nc1ccccc1)c1cscn1", "inhibition of growth at 10 µM": 39},
      {"smiles": "O=C(Nc1ccccc1)c1ccccc1C(F)(F)F", "inhibition of growth at 10 µM": 96}
    ]}
  ]
}
